Like-named read-outs stand apart in the source and are kept apart here.
Experiments:
[1] = system: mitochondrial membrane potential; format: cell-based, mouse; settings: Conc 20 μM; for ΔΨm (composite Z-score): normalized score vs mock-treated (DMSO) wells
reactive oxygen species = format: cell-based, mouse; settings: Conc 20 μM; for ROS (composite Z-score): normalized score vs mock-treated (DMSO) wells
OXPHOS gene expression = format: cell-based, mouse; settings: Conc 20 μM; for GE-HTS (composite Z-score): normalized score vs mock-treated (DMSO) wells
nuOXPHOS transcripts = format: cell-based, mouse; settings: Conc 20 μM; for nucOX (composite Z-score): normalized score vs mock-treated (DMSO) wells
mtOXPHOS transcripts = format: cell-based, mouse; settings: Conc 20 μM; for mitoOX (composite Z-score): normalized score vs mock-treated (DMSO) wells
cytochrome c = format: cell-based, mouse; settings: Conc 20 μM; for cyt c (composite Z-score): normalized score vs mock-treated (DMSO) wells
C2C12 myotubes = settings: Conc 20 μM; for Viability (composite Z-score): normalized score vs mock-treated (DMSO) wells
[2] = system: cellular dehydrogenase activity; settings: Conc 20 μM; for MTT (composite Z-score): normalized score vs mock-treated (DMSO) wells
[3] = normalized composite Z-score vs mock-treated (DMSO) wells
[4] = composite Z-score vs mock-treated (DMSO) wells

Compound: CCOc1ccc(C(=O)c2ccc(O)c(O)c2O)cc1 [2,3,4-trihydroxy-4′-ethoxybenzophenone]
- ΔΨm (composite Z-score) [1]: −1.185
- ROS (composite Z-score) (reactive oxygen species): 0.052
- GE-HTS (composite Z-score) (OXPHOS gene expression): −0.823
- nucOX (composite Z-score) (nuOXPHOS transcripts): −0.896
- mitoOX (composite Z-score) (mtOXPHOS transcripts): −0.478
- cyt c (composite Z-score) (cytochrome c): 0.440
- Viability (composite Z-score) (C2C12 myotubes): −0.413
- MTT (composite Z-score) [2]: −2.368

Compound: COc1ccc(C(=O)c2ccc(O)cc2)c(O)c1O [2,3,4′-trihydroxy-4-methoxybenzophenone]
- ΔΨm [1, 3]: −1.356
- ROS (reactive oxygen species; [3]): −0.472
- GE-HTS (OXPHOS gene expression; [3]): −1.557
- nucOX (nuOXPHOS transcripts; [3]): −1.472
- mitoOX (mtOXPHOS transcripts; [3]): −1.476
- cyt c (cytochrome c; [3]): 0.378
- Viability (C2C12 myotubes; [3]): −0.403
- MTT [2, 3]: −0.475

Compound: CC(=O)O[C@@H]1C[C@H]2C(C)(C)CCC(=O)[C@]2(C)[C@H]2CC[C@@]3(C)[C@H](c4ccoc4)OC(=O)[C@H]4O[C@]43[C@@]21C [2,3-dihydroisogedunin]
- ΔΨm (composite Z-score) [1]: 0.221
- ROS (composite Z-score) (reactive oxygen species): 0.780
- GE-HTS (composite Z-score) (OXPHOS gene expression): −0.471
- nucOX (composite Z-score) (nuOXPHOS transcripts): −0.444
- mitoOX (composite Z-score) (mtOXPHOS transcripts): −0.449
- cyt c (composite Z-score) (cytochrome c): 0.184
- Viability (composite Z-score) (C2C12 myotubes): 0.804
- MTT (composite Z-score) [2]: −1.287

Compound: Oc1nc2cc(Cl)c(Cl)cc2nc1O [2,3-dihydroxy-6,7-dichloroquinoxaline]
- ΔΨm (composite Z-score) [1]: −1.689
- ROS (composite Z-score) (reactive oxygen species): 0.085
- GE-HTS (composite Z-score) (OXPHOS gene expression): −0.724
- nucOX (composite Z-score) (nuOXPHOS transcripts): −0.712
- mitoOX (composite Z-score) (mtOXPHOS transcripts): −0.565
- cyt c (composite Z-score) (cytochrome c): 0.279
- Viability (composite Z-score) (C2C12 myotubes): −0.077
- MTT (composite Z-score) [2]: −1.458

Compound: COC1=CC(=O)C(C(=O)c2ccccc2)=CC1=O [2-benzoyl-5-methoxybenzoquinone]
- ΔΨm ([1]; composite Z-score vs DMSO): −0.229
- ROS (reactive oxygen species; composite Z-score vs DMSO): −0.542
- GE-HTS (OXPHOS gene expression; composite Z-score vs DMSO): −0.699
- nucOX (nuOXPHOS transcripts; composite Z-score vs DMSO): −0.511
- mitoOX (mtOXPHOS transcripts; composite Z-score vs DMSO): −0.985
- cyt c (cytochrome c; composite Z-score vs DMSO): 0.206
- Viability (C2C12 myotubes; composite Z-score vs DMSO): −0.284
- MTT ([2]; composite Z-score vs DMSO): −1.489

Compound: CCOC(=O)C1(O)Oc2cc(OC)cc(OC)c2C(=O)C1c1ccccc1 (centres unmarked) [2-ethoxycarbonyl-2-hydroxy-5,7-dimethoxyisoflavanone, reference compound]
- ΔΨm [1, 4]: 0.215
- ROS (reactive oxygen species; [4]): 0.774
- GE-HTS (OXPHOS gene expression; [4]): 0.280
- nucOX (nuOXPHOS transcripts; [4]): 0.232
- mitoOX (mtOXPHOS transcripts; [4]): 0.273
- cyt c (cytochrome c; [4]): 0.161
- Viability (C2C12 myotubes; [4]): 0.511
- MTT [2, 4]: −0.260

Compound: O=c1c2ccccc2oc2ccc(O)cc12 [2-hydroxyxanthone]
- ΔΨm ([1]; composite Z-score vs DMSO): −0.245
- ROS (reactive oxygen species; composite Z-score vs DMSO): 1.660
- GE-HTS (OXPHOS gene expression; composite Z-score vs DMSO): −0.364
- nucOX (nuOXPHOS transcripts; composite Z-score vs DMSO): −0.173
- mitoOX (mtOXPHOS transcripts; composite Z-score vs DMSO): −0.652
- cyt c (cytochrome c; composite Z-score vs DMSO): 0.238
- Viability (C2C12 myotubes; composite Z-score vs DMSO): −0.402
- MTT ([2]; composite Z-score vs DMSO): −1.863

Compound: CC(C)=CCc1c(O)cc(C)oc1=O [2-isoprenyl-3-hydroxy-5-methyl-a-pyrone]
- ΔΨm [1, 4]: −0.641
- ROS (reactive oxygen species; [4]): 1.032
- GE-HTS (OXPHOS gene expression; [4]): 0.309
- nucOX (nuOXPHOS transcripts; [4]): 0.277
- mitoOX (mtOXPHOS transcripts; [4]): 0.271
- cyt c (cytochrome c; [4]): −0.568
- Viability (C2C12 myotubes; [4]): −1.025
- MTT [2, 4]: 0.055

Compound: COc1cccc(C=CC(=O)O)c1C(C)C [2-isopropyl-3-methoxycinnamic acid]
- ΔΨm [1, 3]: −0.155
- ROS (reactive oxygen species; [3]): 0.433
- GE-HTS (OXPHOS gene expression; [3]): 0.153
- nucOX (nuOXPHOS transcripts; [3]): 0.153
- mitoOX (mtOXPHOS transcripts; [3]): 0.071
- cyt c (cytochrome c; [3]): 0.274
- Viability (C2C12 myotubes; [3]): 0.040
- MTT [2, 3]: −2.002

Compound: Sc1nc2ccccc2s1 [2-mercaptobenzothiazole]
- ΔΨm (composite Z-score) [1]: −0.486
- ROS (composite Z-score) (reactive oxygen species): 0.354
- GE-HTS (composite Z-score) (OXPHOS gene expression): −0.211
- nucOX (composite Z-score) (nuOXPHOS transcripts): −0.231
- mitoOX (composite Z-score) (mtOXPHOS transcripts): −0.097
- cyt c (composite Z-score) (cytochrome c): −0.026
- Viability (composite Z-score) (C2C12 myotubes): −0.830
- MTT (composite Z-score) [2]: −0.672

Compound: COc1c(O)cccc1O [2-methoxyresorcinol]
- ΔΨm (composite Z-score) [1]: −0.536
- ROS (composite Z-score) (reactive oxygen species): 0.864
- GE-HTS (composite Z-score) (OXPHOS gene expression): 0.218
- nucOX (composite Z-score) (nuOXPHOS transcripts): −0.150
- mitoOX (composite Z-score) (mtOXPHOS transcripts): 0.954
- cyt c (composite Z-score) (cytochrome c): −0.146
- Viability (composite Z-score) (C2C12 myotubes): 0.514
- MTT (composite Z-score) [2]: 0.266

Compound: COc1ccc2oc3ccccc3c(=O)c2c1 [2-methoxyxanthone]
- ΔΨm ([1]; composite Z-score vs DMSO): 0.540
- ROS (reactive oxygen species; composite Z-score vs DMSO): 1.398
- GE-HTS (OXPHOS gene expression; composite Z-score vs DMSO): −0.467
- nucOX (nuOXPHOS transcripts; composite Z-score vs DMSO): −0.710
- mitoOX (mtOXPHOS transcripts; composite Z-score vs DMSO): 0.165
- cyt c (cytochrome c; composite Z-score vs DMSO): 1.007
- Viability (C2C12 myotubes; composite Z-score vs DMSO): −0.428
- MTT ([2]; composite Z-score vs DMSO): −1.044

Compound: Cc1occc(=O)c1/C=C/O [2-methyl-3-hydroxyethylenepyran-4-one]
- ΔΨm [1, 3]: −0.608
- ROS (reactive oxygen species; [3]): 0.234
- GE-HTS (OXPHOS gene expression; [3]): −0.128
- nucOX (nuOXPHOS transcripts; [3]): −0.012
- mitoOX (mtOXPHOS transcripts; [3]): −0.305
- cyt c (cytochrome c; [3]): −0.244
- Viability (C2C12 myotubes; [3]): 0.309
- MTT [2, 3]: −0.725

Compound: COc1cc(OC)c2c(=O)c(-c3ccccc3)c(C)oc2c1OC [2-methyl-5,7,8-trimethoxyisoflavone]
- ΔΨm ([1]; composite Z-score vs DMSO): 0.306
- ROS (reactive oxygen species; composite Z-score vs DMSO): −0.371
- GE-HTS (OXPHOS gene expression; composite Z-score vs DMSO): 0.495
- nucOX (nuOXPHOS transcripts; composite Z-score vs DMSO): 0.629
- mitoOX (mtOXPHOS transcripts; composite Z-score vs DMSO): 0.081
- cyt c (cytochrome c; composite Z-score vs DMSO): 1.063
- Viability (C2C12 myotubes; composite Z-score vs DMSO): −0.656
- MTT ([2]; composite Z-score vs DMSO): −0.531

Compound: CCCc1occc(=O)c1CCO [2-propyl-3-hydroxyethylenepyran-4-one]
- ΔΨm (composite Z-score) [1]: −0.741
- ROS (composite Z-score) (reactive oxygen species): 0.195
- GE-HTS (composite Z-score) (OXPHOS gene expression): 0.682
- nucOX (composite Z-score) (nuOXPHOS transcripts): 0.870
- mitoOX (composite Z-score) (mtOXPHOS transcripts): 0.202
- cyt c (composite Z-score) (cytochrome c): −0.100
- Viability (composite Z-score) (C2C12 myotubes): 0.162
- MTT (composite Z-score) [2]: −0.906

Compound: O=C(O[C@@H]1Cc2c(O)cc(O)cc2O[C@@H]1c1cc(O)c(O)c(O)c1-c1c([C@H]2Oc3cc(O)cc(O)c3C[C@H]2OC(=O)c2cc(O)c(O)c(O)c2)cc(O)c(O)c1O)c1cc(O)c(O)c(O)c1 [2′,2′-bisepigallocatechin digallate]
- ΔΨm [1, 3]: −1.132
- ROS (reactive oxygen species; [3]): −0.130
- GE-HTS (OXPHOS gene expression; [3]): −0.865
- nucOX (nuOXPHOS transcripts; [3]): −0.836
- mitoOX (mtOXPHOS transcripts; [3]): −0.808
- cyt c (cytochrome c; [3]): 0.616
- Viability (C2C12 myotubes; [3]): 0.851
- MTT [2, 3]: −0.826

Compound: O=C(O[C@@H]1Cc2c(O)cc(O)cc2O[C@@H]1c1cc(O)c(O)c(O)c1-c1c([C@H]2Oc3cc(O)cc(O)c3C[C@H]2O)cc(O)c(O)c1O)c1cc(O)c(O)c(O)c1 [2′,2′-bisepigallocatechin monogallate]
- ΔΨm (composite Z-score) [1]: −2.350
- ROS (composite Z-score) (reactive oxygen species): 0.428
- GE-HTS (composite Z-score) (OXPHOS gene expression): −0.573
- nucOX (composite Z-score) (nuOXPHOS transcripts): −0.545
- mitoOX (composite Z-score) (mtOXPHOS transcripts): −0.575
- cyt c (composite Z-score) (cytochrome c): 0.246
- Viability (composite Z-score) (C2C12 myotubes): 0.442
- MTT (composite Z-score) [2]: −1.318

Compound: O=C(/C=C/c1ccccc1)c1ccc(O[C@@H]2O[C@H](CO)[C@@H](O)[C@H](O)[C@H]2O)cc1O [2′,4′-dihydroxychalcone 4′-glucoside]
- ΔΨm (composite Z-score) [1]: −0.532
- ROS (composite Z-score) (reactive oxygen species): 1.144
- GE-HTS (composite Z-score) (OXPHOS gene expression): −0.189
- nucOX (composite Z-score) (nuOXPHOS transcripts): −0.247
- mitoOX (composite Z-score) (mtOXPHOS transcripts): 0.004
- cyt c (composite Z-score) (cytochrome c): −0.225
- Viability (composite Z-score) (C2C12 myotubes): 0.556
- MTT (composite Z-score) [2]: −1.358

Compound: O=C(C=C(O)c1ccccc1)c1ccccc1O [2′,beta-dihydroxychalcone]
- ΔΨm ([1]; composite Z-score vs DMSO): −0.044
- ROS (reactive oxygen species; composite Z-score vs DMSO): 0.194
- GE-HTS (OXPHOS gene expression; composite Z-score vs DMSO): 0.097
- nucOX (nuOXPHOS transcripts; composite Z-score vs DMSO): −0.188
- mitoOX (mtOXPHOS transcripts; composite Z-score vs DMSO): 0.600
- cyt c (cytochrome c; composite Z-score vs DMSO): −0.260
- Viability (C2C12 myotubes; composite Z-score vs DMSO): −0.801
- MTT ([2]; composite Z-score vs DMSO): −1.791

Source: patent US20090143279A1 (priority 2007, published 2009)
